Source: patent US7166593B2, “Glucocorticoid receptor modulators” (Pfizer, Inc., priority 2000, dated 2007)

Columns and labels:
[1] = test system: IL-1 (Interleukin-1) induced MMP-1 (Matrix Metalloproteinase-1) production in SW1353 human chondrosarcoma cells; test: glucocorticoid inhibition of IL-1 induced MMP-1 production in human chondrosarcoma cells; format: cell-based; details: 20 ng/ml IL-1 beta, 72 hours after IL-1 addition, MMP-1 ELISA, read-out: IC50, inhibitor of MMP1 expression
Experimental: (§1) This assay, the glucocorticoid inhibition of IL-1 (Interleukin-1) induced MMP-1 (Matrix Metalloproteinase-1) and IL-8 (Interleukin-8) production in human chondrosarcoma cells, is conducted as follows: SW1353 human chondrosarcoma cells (obtained from ATCC) from passage 12 through passage 19 are used in a 96 well format assay. Cells are plated at confluence into 96 well plates in DMEM (Dulbecco's Modified Eagle Medium) with 10% fetal bovine serum and incubated at 37° C., 5% CO2. After 24 hours, serum containing media is removed and replaced with 200 ul/well DMEM containing 1 mg/L insulin, 2 g/L lactalbumin hydrosylate, and 0.5 mg/L ascorbic acid and returned to incubation at 37° C., 5% CO2. […] IL-8 production is assessed using the Quantikine human IL-8 ELISA kit from R&D Systems (D8050) on samples diluted 60. fold in RD5P Calibrator Diluent, following the manufacturer's protocol. The percent of the average IL-1 control is determined for the average of each of the triplicate samples following subtraction of the average signal from untreated cells. IC50's are determined from log linear plots of the percent of control versus the concentration of inhibitor. […] MMP-1 production is assessed via the Bio-Trak MMP-1 ELISA kit from Amersham (RPN2610) on 100 ul of neat sample following the manufacturer's protocol. […]

[2] = test system: IL-1 (Interleukin-1) induced IL-8 (Interleukin-8) production in SW1353 human chondrosarcoma cells; test: glucocorticoid inhibition of IL-1 induced IL-8 production in human chondrosarcoma cells; format: cell-based; details: 20 ng/ml IL-1 beta, 24 hours after addition of IL-1, IL-8 ELISA, read-out: IC50, inhibitor of IL-8 expression
Experimental: as §1

## C[C@@H]1C[C@H]2[C@@H]3CCC4=CC(=O)C=C[C@]4(C)[C@@]3(F)[C@@H](O)C[C@]2(C)[C@@]1(O)C(=O)CO [Dexamethasone, (11β,16α)-9-fluoro-11,17,21-trihydroxy-16-methylpregna-1,4-diene-3,20-dione]
[1]
  IC50: 5 nM
[2]
  IC50: 5 nM
